Assay results: ChEMBL document CHEMBL3044763, “Inhibitory Activities of Rhodanine Derivatives on Plant Growth” (Biosci Biotechnol Biochem, 1996)

Experiments:
[1] = system: Brassica rapa subsp. oleifera; test: Growth inhibition of Brassica rapa subsp. oleifera assessed as chlorophyll b level at 3 x 10^-4 M after 7 days; format: functional; design: scale not given: the % may be the effect or the level left
[2] = system: Brassica rapa subsp. oleifera; test: Growth inhibition of Brassica rapa subsp. oleifera assessed as chlorophyll b level at 1 x 10^-4 M after 7 days; format: functional; design: scale not given: the % may be the effect or the level left
[3] = system: Brassica rapa subsp. oleifera; test: Growth inhibition of Brassica rapa subsp. oleifera assessed as chlorophyll a level at 3 x 10^-5 M after 7 days; format: functional; design: scale not given: the % may be the effect or the level left
[4] = system: Brassica rapa subsp. oleifera; test: Growth inhibition of Brassica rapa subsp. oleifera assessed as chlorophyll a level at 5 x 10^-5 M after 7 days; format: functional; design: scale not given: the % may be the effect or the level left
[5] = Toxicity in Mus musculus ddY (mouse) assessed as mortality at 500 mg/kg, ip after 4 days; format: organism-based; design: dose 500 mg/kg, route intraperitoneal; settings: in vivo
[6] = Toxicity in Mus musculus ddY (mouse) assessed as mortality at 650 mg/kg, ip after 4 days; format: organism-based; design: dose 650 mg/kg, route intraperitoneal; settings: in vivo
[7] = Toxicity in Mus musculus ddY (mouse) assessed as mortality at 600 mg/kg, ip after 4 days; format: organism-based; design: dose 600 mg/kg, route intraperitoneal; settings: in vivo
[8] = Toxicity in ip dosed Mus musculus ddY (mouse) assessed as mortality after 1 to 7 days; format: organism-based; settings: in vivo
[9] = system: Brassica rapa subsp. oleifera; test: Growth inhibition of Brassica rapa subsp. oleifera assessed as total chlorophyll level at 5 x 10^-5 M after 7 days; format: functional; design: scale not given: the % may be the effect or the level left
[10] = system: Brassica rapa subsp. oleifera; test: Growth inhibition of Brassica rapa subsp. oleifera assessed as total chlorophyll level at 3 x 10^-5 M after 7 days; format: functional; design: scale not given: the % may be the effect or the level left
[11] = system: Brassica rapa subsp. oleifera; test: Growth inhibition of Brassica rapa subsp. oleifera assessed as total chlorophyll level at 1 x 10^-4 M after 7 days; format: functional; design: scale not given: the % may be the effect or the level left
[12] = system: Brassica rapa subsp. oleifera; test: Growth inhibition of Brassica rapa subsp. oleifera assessed as total chlorophyll level at 3 x 10^-4 M after 7 days; format: functional; design: scale not given: the % may be the effect or the level left
[13] = system: Brassica rapa subsp. oleifera; test: Growth inhibition of Brassica rapa subsp. oleifera assessed as root growth at 3 x 10^-5 M after 7 days; format: functional
[14] = system: Brassica rapa subsp. oleifera; test: Growth inhibition of Brassica rapa subsp. oleifera assessed as root growth at 5 x 10^-5 M after 7 days; format: functional
[15] = system: Brassica rapa subsp. oleifera; test: Growth inhibition of Brassica rapa subsp. oleifera assessed as root growth at 1 x 10^-4 M after 7 days; format: functional
[16] = system: Brassica rapa subsp. oleifera; test: Growth inhibition of Brassica rapa subsp. oleifera assessed as root growth at 3 x 10^-4 M after 7 days; format: functional
[17] = Toxicity in Mus musculus ddY (mouse) assessed as mortality at 400 mg/kg, ip after 4 days; format: organism-based; design: dose 400 mg/kg, route intraperitoneal; settings: in vivo
[18] = Toxicity in Mus musculus ddY (mouse) assessed as mortality at 450 mg/kg, ip after 3 days; format: organism-based; design: dose 450 mg/kg, route intraperitoneal; settings: in vivo
[19] = Toxicity in Mus musculus ddY (mouse) assessed as mortality at 400 mg/kg, ip after 3 days; format: organism-based; design: dose 400 mg/kg, route intraperitoneal; settings: in vivo
[20] = Toxicity in Mus musculus ddY (mouse) assessed as mortality at 550 mg/kg, ip after 3 days; format: organism-based; design: dose 550 mg/kg, route intraperitoneal; settings: in vivo
[21] = Toxicity in Mus musculus ddY (mouse) assessed as mortality at 500 mg/kg, ip after 3 days; format: organism-based; design: dose 500 mg/kg, route intraperitoneal; settings: in vivo
[22] = Toxicity in Mus musculus ddY (mouse) assessed as mortality at 650 mg/kg, ip after 3 days; format: organism-based; design: dose 650 mg/kg, route intraperitoneal; settings: in vivo
[23] = Toxicity in Mus musculus ddY (mouse) assessed as mortality at 600 mg/kg, ip after 3 days; format: organism-based; design: dose 600 mg/kg, route intraperitoneal; settings: in vivo
[24] = Toxicity in Mus musculus ddY (mouse) assessed as mortality at 450 mg/kg, ip after 2 days; format: organism-based; design: dose 450 mg/kg, route intraperitoneal; settings: in vivo
[25] = Toxicity in Mus musculus ddY (mouse) assessed as mortality at 550 mg/kg, ip after 2 days; format: organism-based; design: dose 550 mg/kg, route intraperitoneal; settings: in vivo
[26] = Toxicity in Mus musculus ddY (mouse) assessed as mortality at 500 mg/kg, ip after 2 days; format: organism-based; design: dose 500 mg/kg, route intraperitoneal; settings: in vivo
[27] = Toxicity in Mus musculus ddY (mouse) assessed as mortality at 650 mg/kg, ip after 2 days; format: organism-based; design: dose 650 mg/kg, route intraperitoneal; settings: in vivo
[28] = Toxicity in Mus musculus ddY (mouse) assessed as mortality at 600 mg/kg, ip after 2 days; format: organism-based; design: dose 600 mg/kg, route intraperitoneal; settings: in vivo
[29] = Toxicity in Mus musculus ddY (mouse) assessed as mortality at 400 mg/kg, ip after 2 days; format: organism-based; design: dose 400 mg/kg, route intraperitoneal; settings: in vivo
[30] = Toxicity in Mus musculus ddY (mouse) assessed as mortality at 450 mg/kg, ip after 1 day; format: organism-based; design: dose 450 mg/kg, route intraperitoneal; settings: in vivo
[31] = Toxicity in Mus musculus ddY (mouse) assessed as mortality at 550 mg/kg, ip after 1 day; format: organism-based; design: dose 550 mg/kg, route intraperitoneal; settings: in vivo
[32] = Toxicity in Mus musculus ddY (mouse) assessed as mortality at 500 mg/kg, ip after 1 day; format: organism-based; design: dose 500 mg/kg, route intraperitoneal; settings: in vivo
[33] = Toxicity in Mus musculus ddY (mouse) assessed as mortality at 650 mg/kg, ip after 1 day; format: organism-based; design: dose 650 mg/kg, route intraperitoneal; settings: in vivo
[34] = Toxicity in Mus musculus ddY (mouse) assessed as mortality at 600 mg/kg, ip after 1 day; format: organism-based; design: dose 600 mg/kg, route intraperitoneal; settings: in vivo
[35] = system: Brassica rapa subsp. oleifera; test: Growth inhibition of Brassica rapa subsp. oleifera assessed as chlorophyll b level at 3 x 10^-5 M after 7 days; format: functional; design: scale not given: the % may be the effect or the level left
[36] = Toxicity in Mus musculus ddY (mouse) assessed as mortality at 400 mg/kg, ip after 1 day; format: organism-based; design: dose 400 mg/kg, route intraperitoneal; settings: in vivo
[37] = system: Brassica rapa subsp. oleifera; test: Growth inhibition of Brassica rapa subsp. oleifera assessed as chlorophyll b level at 5 x 10^-5 M after 7 days; format: functional; design: scale not given: the % may be the effect or the level left
[38] = system: Brassica rapa subsp. oleifera; test: Growth inhibition of Brassica rapa subsp. oleifera assessed as chlorophyll a level at 1 x 10^-4 M after 7 days; format: functional; design: scale not given: the % may be the effect or the level left
[39] = system: Brassica rapa subsp. oleifera; test: Growth inhibition of Brassica rapa subsp. oleifera assessed as chlorophyll a level at 3 x 10^-4 M after 7 days; format: functional; design: scale not given: the % may be the effect or the level left
[40] = Toxicity in Mus musculus ddY (mouse) assessed as mortality at 450 mg/kg, ip after 5 days; format: organism-based; design: dose 450 mg/kg, route intraperitoneal; settings: in vivo
[41] = Toxicity in Mus musculus ddY (mouse) assessed as mortality at 550 mg/kg, ip after 5 days; format: organism-based; design: dose 550 mg/kg, route intraperitoneal; settings: in vivo
[42] = Toxicity in Mus musculus ddY (mouse) assessed as mortality at 500 mg/kg, ip after 5 days; format: organism-based; design: dose 500 mg/kg, route intraperitoneal; settings: in vivo
[43] = Toxicity in Mus musculus ddY (mouse) assessed as mortality at 600 mg/kg, ip after 5 days; format: organism-based; design: dose 600 mg/kg, route intraperitoneal; settings: in vivo
[44] = Toxicity in Mus musculus ddY (mouse) assessed as mortality at 650 mg/kg, ip after 5 days; format: organism-based; design: dose 650 mg/kg, route intraperitoneal; settings: in vivo
[45] = Toxicity in Mus musculus ddY (mouse) assessed as mortality at 400 mg/kg, ip after 5 days; format: organism-based; design: dose 400 mg/kg, route intraperitoneal; settings: in vivo
[46] = Toxicity in Mus musculus ddY (mouse) assessed as mortality at 500 mg/kg, ip after 7 days; format: organism-based; design: dose 500 mg/kg, route intraperitoneal; settings: in vivo
[47] = Toxicity in Mus musculus ddY (mouse) assessed as mortality at 600 mg/kg, ip after 7 days; format: organism-based; design: dose 600 mg/kg, route intraperitoneal; settings: in vivo
[48] = Toxicity in Mus musculus ddY (mouse) assessed as mortality at 550 mg/kg, ip after 7 days; format: organism-based; design: dose 550 mg/kg, route intraperitoneal; settings: in vivo
[49] = Toxicity in Mus musculus ddY (mouse) assessed as mortality at 650 mg/kg, ip after 7 days; format: organism-based; design: dose 650 mg/kg, route intraperitoneal; settings: in vivo
[50] = Toxicity in Mus musculus ddY (mouse) assessed as mortality at 400 mg/kg, ip after 7 days; format: organism-based; design: dose 400 mg/kg, route intraperitoneal; settings: in vivo
[51] = Toxicity in Mus musculus ddY (mouse) assessed as mortality at 450 mg/kg, ip after 6 days; format: organism-based; design: dose 450 mg/kg, route intraperitoneal; settings: in vivo
[52] = Toxicity in Mus musculus ddY (mouse) assessed as mortality at 550 mg/kg, ip after 6 days; format: organism-based; design: dose 550 mg/kg, route intraperitoneal; settings: in vivo
[53] = Toxicity in Mus musculus ddY (mouse) assessed as mortality at 500 mg/kg, ip after 6 days; format: organism-based; design: dose 500 mg/kg, route intraperitoneal; settings: in vivo
[54] = Toxicity in Mus musculus ddY (mouse) assessed as mortality at 650 mg/kg, ip after 6 days; format: organism-based; design: dose 650 mg/kg, route intraperitoneal; settings: in vivo
[55] = Toxicity in Mus musculus ddY (mouse) assessed as mortality at 600 mg/kg, ip after 6 days; format: organism-based; design: dose 600 mg/kg, route intraperitoneal; settings: in vivo
[56] = Toxicity in Mus musculus ddY (mouse) assessed as mortality at 400 mg/kg, ip after 6 days; format: organism-based; design: dose 400 mg/kg, route intraperitoneal; settings: in vivo
[57] = Toxicity in Mus musculus ddY (mouse) assessed as mortality at 450 mg/kg, ip after 7 days; format: organism-based; design: dose 450 mg/kg, route intraperitoneal; settings: in vivo
[58] = Toxicity in Mus musculus ddY (mouse) assessed as mortality at 450 mg/kg, ip after 4 days; format: organism-based; design: dose 450 mg/kg, route intraperitoneal; settings: in vivo
[59] = Toxicity in Mus musculus ddY (mouse) assessed as mortality at 550 mg/kg, ip after 4 days; format: organism-based; design: dose 550 mg/kg, route intraperitoneal; settings: in vivo

**Q.** Which results are given for O=C(O)CN1C(=O)CSC1=S [RHODANINE-3-ACETIC ACID]?
**A.** Activity [1]: 3.76%; Activity [2]: 5.48%; Activity [3]: 18.01%; Activity [4]: 17.08%; mortality at 96 h [5]: 20%; mortality at 96 h [6]: 100%; mortality at 96 h [7]: 80%; LD50 [8]: 510 mg/kg; Activity [9]: 24.42%; Activity [10]: 25.06%; Activity [11]: 19.57%; Activity [12]: 13.99%; Root length [13]: 57 mm; Root length [14]: 57.1 mm; Activity [15]: 39.8 mm; Activity [16]: 18.3 mm; mortality at 96 h [17]: 0%; mortality at 72 h [18]: 0%; mortality at 72 h [19]: 0%; mortality at 72 h [20]: 40%; mortality at 72 h [21]: 20%; mortality at 72 h [22]: 100%; mortality at 72 h [23]: 60%; mortality at 48 h [24]: 0%; mortality at 48 h [25]: 0%; mortality at 48 h [26]: 20%; mortality at 48 h [27]: 100%; mortality at 48 h [28]: 60%; mortality at 48 h [29]: 0%; mortality at 24 h [30]: 0%; mortality at 24 h [31]: 0%; mortality at 24 h [32]: 0%; mortality at 24 h [33]: 20%; mortality at 24 h [34]: 20%; Activity [35]: 7.05%; mortality at 24 h [36]: 0%; Activity [37]: 7.35%; Activity [38]: 14.1%; Activity [39]: 10.17%; mortality at 120 h [40]: 20%; mortality at 120 h [41]: 80%; mortality at 120 h [42]: 20%; mortality at 120 h [43]: 80%; mortality at 120 h [44]: 100%; mortality at 120 h [45]: 0%; mortality at 168 h [46]: 40%; mortality at 168 h [47]: 80%; mortality at 168 h [48]: 80%; mortality at 168 h [49]: 100%; mortality at 168 h [50]: 0%; mortality at 144 h [51]: 20%; mortality at 144 h [52]: 80%; mortality at 144 h [53]: 40%; mortality at 144 h [54]: 100%; mortality at 144 h [55]: 80%; mortality at 144 h [56]: 0%; mortality at 168 h [57]: 20%; mortality at 96 h [58]: 20%; mortality at 96 h [59]: 80%
